Patent US20190225651A1, “COMPOUNDS FOR INDUCING TISSUE FORMATION AND USES THEREOF” (HISTIDE AG, priority 2015, published 2019)
Ends that are not written are not given here.

Experiments:
[1] = system: hMSCs; assay: Loss of stemness, STRO-1 immunostaining; format: cell-based, human; conditions: compound in solution in cell culture media
Description: (§1) The cells were first fixed for 20 min with 4% paraformaldehyde/PBS at 4° C. After fixation, the cells were permeabilized in PBS containing 1% Triton X-100 for 15 min. Runx2, Osterix, Stro-1, Vinculin, Phalloidin, Osteopontin, Sox2, Sox9 antibodies were visualized by treating the cells with 1% (v/v) specific monoclonal antibodies for 1 hour at 37° C. Then the samples were incubated with Alexa Fluor® 568 or 647 (F(ab′)2 fragment of IgG(H+L)) during 30 min at room temperature. The cell nuclei were counterstained in 20 ng/mL DAPI for 10 min at room temperature.
For this type of quantification the freeware image analysis ImageJ® software was used. The raw image was first converted to an 8-bit file, and then the unsharp mask feature was used (settings 1:0.2) to remove the image background (rolling ball radius 10). After smoothing, the resulting image, which appears similar to the original photomicrograph but with minimal background, was then converted to a binary image by setting a threshold. Threshold values were determined empirically by selecting a setting, which gave the most accurate binary image for a subset of randomly selected photomicrographs. The cell area was determined by manual delineation on raw fluorescent images. Total contact area and mean contact area per cell were calculated by “analyse particules” in ImageJ®. A minimum of […] per condition were analyzed. Stro-1 expression was determined using this procedure.
hMSCs were cultured on conventional cell culture plastic plates with and without the presence in the cell culture media of different GFR-binding compounds as defined hereins (SEQ ID NO: 39 to 45) in solution. […] This was probed by Stro-1 immunostaining after cell fixation as described in the Methods section. The quantification of Stro-1 positive contact numbers and areas was performed as described in the Methods section. A minimum of 30 cells per condition were analyzed. One should note that it is commonly admitted that the expression of STRO-1 in a cell is indicative of a cell that is in a substantially non-differentiated state and the decrease of its expression of at least about 20% is indicative of a cell that has started a processus of differentiation but which may not result in the differentiation of the cell. A decrease of more than 50% would be indicative of the presence of a significant shift towards a differentiated state. A decrease of more than 70% would be indicative of the presence of a very important shift towards a differentiated state. A sustained decrease (e.g. for at least 96 h) of more than 50% or 70% would be indicative of the presence of an even more important shift towards a differentiated state.
Likewise, hMSCs were cultured on conventional cell culture plastic plates with and without the presence in the cell culture media of different GFR-binding compounds as defined herein (SEQ ID NO: 1581 to 1606) in solution. […] This strong decrease was also confirmed after 96 h.

[2] = system: osteoblast progenitors; assay: Osteogenic differentiation of osteoblast progenitors on peptide-coated materials (Osteopontin staining, Runx2 Q-PCR); format: cell-based
Description: as §1
Total RNA was extracted by using the RNeasy total RNA kit (Qiagen®) according to the manufacturer's instructions. Purified total RNA was used as a template in order to make cDNA by a reverse transcription reaction (Gibco BrI®) with random primers (Invitrogen®). The cDNA was then used as a template for a real-time PCR amplification in the presence of SYBR green reagents (Bio-Rad®) by using a thermocycler (iCycler, Biorad®). Data were analyzed with the iCycler IQ™® software and compared by the ΔΔCt method. Briefly, the mean Ct value of the target gene was normalized to its averaged Ct values of the housekeeping gene (HPRT) to give a ΔCt value, which was then normalized to a control sample to obtain a ΔΔCt value. The results were obtained from two series of experiments performed in a triplicate.
The effect of these GFR-binding compounds as defined herein (SEQ ID NO: 19 and 20) on the differentiation of osteoblast progenitors was evaluated. These osteoblast progenitors were seeded onto the apatite ceramics or on type-I collagen sponge that were both coated with osteogenic peptides. […] This was seen from Osteopentin immunofluorescence staining after cell fixation as described in the Methods section (FIG. 7).
An increase in the Runx2 gene expression after 24 hours of culture (FIG. 8a) was observed by using Quantitative Real Time Polymerase Chain Reaction as described in the Methods section.

[3] = system: Hair Follicle Stem Cells; assay: Loss of quiescence and activation of hair follicle stem cells (Sox2, BMP-6); format: cell-based, Mouse
Description: Isolated Hair Follicle Stem Cells were cultured with and without GFR-binding compounds as defined herein (SEQ ID NO: 29 and 30). An increase in the Sox2 protein expression was observed illustrating the activation of these stem cells (FIG. 13a). In parallel, a decrease in the BMP-6 release in the cell culture medium was observed (FIG. 13b).

1602 (AAAAAAAAADENEKVVRVPSTSSVPAEESNITVQIMDDSSNVI; also: cyclic, closure not given here) [compound 1602]
STRO-1 Expression (%) after 48 h [1]: 42%

SEQ ID NO: 20: osteogenic cyclic GFR-binding compound of the sequence listing; sequence not printed (GTPGPSAISTLYLGGGGGGG; also: cyclic, ring type and places not given here)
differentiation into mature osteoblasts ([2]; 48 hours on coated apatite ceramics or type-I collagen sponge): differentiated into mature osteoblasts | production of extracellular matrix proteins such as Osteopontin (OPN) ([2]; versus native type-I collagen sponge or native apatite ceramics): produced extensive amounts of extracellular matrix proteins such as Osteopontin (OPN)

1592 (GGGGGGGGGDDSSNVIAASKASSTPTDLNAISTLYFDDSSNVI; also: cyclic, closure not given here) [compound 1592]
STRO-1 Expression (%) after 48 h [1]: 30%

1605 (AAAAAAAAADENEKVVAASKASSVPEKMRPVQTRKIDDSSNVI; also: cyclic, closure not given here) [compound 1605]
STRO-1 Expression (%) after 48 h [1]: 30%

1604 (AAAAAAAAADAANNVVKIPKASSTQVRLRSVKTAKVDAANNVV; also: cyclic, closure not given here) [compound 1604]
STRO-1 Expression (%) after 48 h [1]: 35%

1590 (GGGGGGGGGDENEKVVRVPSTSSTQVKMSAISMLYLDENEKVV; also: cyclic, closure not given here) [compound 1590]
STRO-1 Expression (%) after 48 h [1]: 23%

1593 (GGGGGGGGGDENEKVVRVPSTSSTQVDLNAISVLYFDENEKVV; also: cyclic, closure not given here) [compound 1593]
STRO-1 Expression (%) after 48 h [1]: 32%

1606 (GGGGGGGGGFDNDENVVGIPEPSSAPVDMRPVQIRKIFDNDENVV; also: cyclic, closure not given here) [compound 1606]
STRO-1 Expression (%) after 48 h [1]: 43%

1595 (GGGGGGGGGDDSSNVIGIPEPSSAPTRLEPISMLYLDENEKVV; also: cyclic, closure not given here) [compound 1595]
STRO-1 Expression (%) after 48 h [1]: 27%

1589 (GGGGGGGGGDDSSNVISTPPTSSSRVQLSAISMLYLDDSSNVI; also: cyclic, closure not given here) [compound 1589]
STRO-1 Expression (%) after 48 h [1]: 22%

1594 (AAAAAAAAADAANNVVGIPEPSSVSQELSATSMLYYDAANNVV; also: cyclic, closure not given here) [compound 1594]
STRO-1 Expression (%) after 48 h [1]: 31%

1603 (GGGGGGGGGFDNDENVVAASKASSVPQRLRSVKVAKVFDNDENVV; also: cyclic, closure not given here) [compound 1603]
STRO-1 Expression (%) after 48 h [1]: 34%

1583 (GGGGGGGGGDDSSNVIRVPSTSSAPTKMNAISMLYFDENEKVV; also: cyclic, closure not given here) [compound 1583]
STRO-1 Expression (%) after 48 h [1]: 34%

1585 (AAAAAAAAADENEKVVAASKASSVPQEEEPLPMVYYDAANNVV; also: cyclic, closure not given here) [compound 1585]
STRO-1 Expression (%) after 48 h [1]: 27%

1600 (GGGGGGGGGFDNDENVVRVPSTSSVPEKMEPLTMLYYFDNDENVV; also: cyclic, closure not given here) [compound 1600]
STRO-1 Expression (%) after 48 h [1]: 29%

1599 (GGGGGGGGGDDSSNVISTPPTSSVSQKMKPLSILYVDDSSNVI; also: cyclic, closure not given here) [compound 1599]
STRO-1 Expression (%) after 48 h [1]: 35%

1596 (GGGGGGGGGDENEKVVKIPKASSVSQQLEPISTLYLDENEKVV; also: cyclic, closure not given here) [compound 1596]
STRO-1 Expression (%) after 48 h [1]: 19%

1581 (GGGGGGGGGDENEKVVNDEGLESVPEDLSSLSVLFFDENEKVV; also: cyclic, closure not given here) [compound 1581]
STRO-1 Expression (%) after 48 h [1]: 33%

1591 (AAAAAAAAADAANNVVKIPKASSSRVRLSSLSTLFFDAANNVV; also: cyclic, closure not given here) [compound 1591]
STRO-1 Expression (%) after 48 h [1]: 21%

1586 (GGGGGGGGGDDSSNVIKIPKASSVPTGGSNITVQIMDDSSNVI; also: cyclic, closure not given here) [compound 1586]
STRO-1 Expression (%) after 48 h [1]: 31%

1582 (GGGGGGGGGDDSSNVIRVPSTSSVPTGQSAISTLYLDDSSNVI; also: cyclic, closure not given here) [compound 1582]
STRO-1 Expression (%) after 48 h [1]: 29%

1601 (GGGGGGGGGFDNDENVVSTPPTSSTPTKMSNITTQIMFDNDENVV; also: cyclic, closure not given here) [compound 1601]
STRO-1 Expression (%) after 48 h [1]: 41%

1588 (GGGGGGGGGDENEKVVKIPKASSTQVRLRPVQIRKIDAANNVV; also: cyclic, closure not given here) [compound 1588]
STRO-1 Expression (%) after 48 h [1]: 30%

1598 (AAAAAAAAADENEKVVKIPKASSVPTKMKPLSVLYVDDSSNVI; also: cyclic, closure not given here) [compound 1598]
STRO-1 Expression (%) after 48 h [1]: 37%

1597 (GGGGGGGGGDENEKVVSTPPTSSVPTEVSPINTLYFDENEKVV; also: cyclic, closure not given here) [compound 1597]
STRO-1 Expression (%) after 48 h [1]: 38%

1584 (GGGGGGGGGDENEKVVGIPEPSSAPVDLKPLSTLYVDENEKVV; also: cyclic, closure not given here) [compound 1584]
STRO-1 Expression (%) after 48 h [1]: 31%

SEQ ID NO: 29: cyclic GFR-binding compound activating hair follicle stem cells; sequence not printed (DENKNSSLSILFFDENKNGGGGGG; also: cyclic, ring type and places not given here)
BMP-6 release in the cell culture medium [3]: decrease | Sox2 protein expression [3]: increase

1587 (AAAAAAAAADENEKVVAASKASSSRVELRSVKIAKVDDSSNVI; also: cyclic, closure not given here) [compound 1587]
STRO-1 Expression (%) after 48 h [1]: 33%

SEQ ID NO: 30: cyclic GFR-binding compound activating hair follicle stem cells; sequence not printed (DENEKSSLSILFFDENEKGGGGGG; also: cyclic, ring type and places not given here)
BMP-6 release in the cell culture medium [3]: decrease | Sox2 protein expression [3]: increase
